Data reported in publication PMC4106024 (Cancer biology & therapy, 2008).
Entries after “also recorded” stand apart in the source; their conditions may differ. Like-named read-outs stand apart in the source and are kept apart here. *: point of attachment. Cbz = O=C(OCc1ccccc1)*; CH2F = FC*

Legend:
[1] = system: DLCL2 cells; assay: Growth inhibition of DLCL2 cells with caspase inhibitors and/or ApoG2; assay type: cell-based, human
[2] = Maximal tolerated dose; settings: SCID, mouse, in vivo, iv, 40 mg/kg
[3] = system: non-tumor-bearing SCID mice; assay: Maximal tolerated dose
[4] = in vivo, cited from earlier work
[5] = system: Bcl-2 expressing B-cells; settings: in vitro; cited from earlier work
[6] = system: normal female Balb/c mice; settings: 120 μM/kg (approximately 62 mg/kg), five days daily po × 3 weeks; versus vehicle control or Apogossypol; cited from earlier work
[7] = target: recombinant human Mcl-1 (Homo sapiens, UniProt Q07820); assay: Fluorescence polarization-based competitive binding assay
Chain of recombinant human Mcl-1 (Q07820 whole entry): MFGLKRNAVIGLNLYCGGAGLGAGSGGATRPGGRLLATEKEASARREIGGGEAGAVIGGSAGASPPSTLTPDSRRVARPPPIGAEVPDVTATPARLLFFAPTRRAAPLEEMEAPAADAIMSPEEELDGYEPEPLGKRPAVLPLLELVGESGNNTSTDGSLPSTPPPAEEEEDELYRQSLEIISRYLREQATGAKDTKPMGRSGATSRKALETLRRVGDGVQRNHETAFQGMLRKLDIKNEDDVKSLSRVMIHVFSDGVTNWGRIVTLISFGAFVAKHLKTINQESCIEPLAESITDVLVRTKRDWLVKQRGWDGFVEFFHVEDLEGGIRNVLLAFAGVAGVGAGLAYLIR

[8] = system: WSU-DLCL2 cells; settings: read-out: Estimated IC50; cited from earlier work
[9] = Stability test in solid state, spectral purity by HPLC-UV; assay type: physicochemical; settings: amber glass container, room temperature, n = 2
[10] = Stability under stressed conditions, spectral purity by HPLC-UV; assay type: physicochemical; settings: n = 2
[11] = system: protein levels of Bcl-XL or Bim; assay: Western blot of whole cell lysate for Bcl-XL and Bim; assay type: cell-based, human; settings: concentrations up to 5 μM
[12] = system: WSU-DLCL2 cells; assay: Acridine orange/ethidium bromide; assay type: cell-based, human; settings: 4.0 μm
[13] = system: WSU-DLCL2 xenografts; assay: In vivo efficacy test in WSU-DLCL2 SCID mouse xenografts; parameters: species or system ICR-SCID mice; settings: 600 mg/kg (120 mg/kg daily for 5 days), iv or po
[14] = system: cleavage of caspase-3, caspase-9 and PARP; assay: Western blot of apoptosis markers in WSU-DLCL2 cells; assay type: cell-based, human; settings: WSU-DLCL2 whole cell lysate
[15] = system: PANC-1 cells; assay: Cell growth inhibition, MTT assay; assay type: cell-based, human; settings: PANC-1, very low level of Bcl-2
[16] = system: WSU-DLCL2 cells; assay: Cell growth inhibition by Trypan Blue cell counting and MTT assay; assay type: cell-based, human; settings: WSU-DLCL2, 350 nM, Trypan Blue cell counting
[17] = system: non-tumor-bearing SCID mice; settings: in vivo
[18] = system: primary cells of chronic lymphocytic leukemia; assay: Cytotoxic effect on patient-derived primary cells, Trypan Blue cell counting; settings: 350 nM or higher, 72 h
[19] = system: FSCCL cells; assay: Cell growth inhibition, Trypan blue cell counting; assay type: cell-based, human; settings: high level of Bcl-2
[20] = system: normal peripheral blood lymphocytes; assay: Cytotoxic effect on normal lymphocytes, Trypan Blue cell counting; settings: as high as 8 μM, 72 h
[21] = Serum concentration in mice; assay type: in vivo; settings: iv 80 mg/kg per day for five days
[22] = system: primary cells of mantle cell lymphoma; assay: Cytotoxic effect on patient-derived primary cells, Trypan Blue cell counting; settings: 350 nM or higher, 72 h
[23] = system: WM cells; assay: Cell growth inhibition, Trypan blue cell counting; assay type: cell-based, human; settings: very low level of Bcl-2

Cbz-LEHD-CH2F
Growth inhibition, caspase inhibitor alone [1]: no effects of growth inhibition

Cc1cc2c(C(C)C)c(O)c(O)c(C=O)c2c(O)c1-c1c(C)cc2c(C(C)C)c(O)c(O)c(C=O)c2c1O [gossypol]
MTD at 3 days [2]: 120 mg/kg | Signs of toxicity at MTD ([3]; 120 mg/kg (3 x 40 mg/kg iv)): scruffy and rough hair as well as lethargic behavior | Weight loss at MTD ([3]; 120 mg/kg (3 x 40 mg/kg iv), data not shown): < 5% | Lethality ([3]; daily iv injection of 40 mg/kg for 4 days or 60 mg/kg for three days): lethal | H & E staining of sections of mouse liver, small and large intestines ([3]; versus vehicle control, data not shown): no abnormality | Bioavailability when given orally ([4]; po): 12.2–17.6% | medial lethal dose (LD50) [5]: 7.5 to 10 µM | Hepatotoxicity and gastrointestinal toxicity [6]: a great deal of hepatotoxicity and gastrointestinal toxicity

Cc1cc2c(C(C)C)c(O)c(O)c(C=O)c2c(O)c1-c1c(C)cc2c(C(C)C)c(O)c(O)c(C=O)c2c1O [(-)-gossypol, reference compound]
Ki [7]: 170 ± 10 nM | IC50 [8]: > 1000 nM

Cc1cc2c(C(C)C)c(O)c(O)cc2c(O)c1-c1c(C)cc2c(C(C)C)c(O)c(O)cc2c1O [Apogossypol]
Blood concentrations over time [4]: superior blood concentrations over time compared to gossypol | medial lethal dose (LD50) [5]: 3 to 5 µM

Z-DEVD-FMK
Growth inhibition, caspase inhibitor alone [1]: no effects of growth inhibition

Cbz-Val-Ala-Asp-CH2F
Growth inhibition, caspase inhibitor alone [1]: no effects of growth inhibition

Cc1cc2c(C(C)C)c(O)c(O)c(C=O)c2c(O)c1-c1c(C)cc2c(C(C)C)c(O)c(O)c(C=O)c2c1O (racemic) [Racemic gossypol, gossypol, reference compound]
Spectral purity in solid state ([9]; 0 h): 100.0 ± 0% | Spectral purity in solid state ([9]; 2 weeks): 99.9 ± 0.1% | Spectral purity in solid state ([9]; 3 weeks): 99.8 ± 0.2% | Spectral purity in solid state ([9]; 4 days): 99.4 ± 0.1% | Spectral purity in solid state ([9]; 7 days): 99.8 ± 0.1% | Spectral purity under stressed conditions ([10]; 0.1 N HCI, 5 mm): 15.8 ± 0.4% | Spectral purity under stressed conditions ([10]; 0.1 N NaOH, 5 mm): 10.4 ± 0.2% | Spectral purity under stressed conditions ([10]; 30% H2O2, 5 mm): 14.5 ± 0.4% | Spectral purity under stressed conditions ([10]; Normal light, 2 h): 92.3 ± 0.2% | Spectral purity under stressed conditions ([10]; Reference): 92.6 ± 0.6%

Apogossypolone [ApoG2]
Ki ([7]; recombinant Mcl-1, n = 3): 25 ± 10 nM | Spectral purity in solid state ([9]; 0 h): 100.0 ± 0% | Spectral purity in solid state ([9]; 2 weeks): 100.0 ± 0.1% | Spectral purity in solid state ([9]; 3 weeks): 100.0 ± 0.1% | Spectral purity in solid state ([9]; 4 days): 99.7 ± 0.5% | Spectral purity in solid state ([9]; 7 days): 99.9 ± 0.2% | Protein levels of Bcl-XL or Bim [11]: did not affect significantly | Apoptotic cells (AO/EtBr) ([12]; 24 h, control approximately 3%): 10% | Apoptotic cells (AO/EtBr) ([12]; 48 h, control approximately 4%): 17% | Apoptotic cells (AO/EtBr) ([12]; 72 h, control approximately 7%): 32% | Growth inhibition of mouse xenografts, single agent [13]: comparable with that resulted from treatment with CHOP; also recorded: significant growth inhibition | Cleavage of caspase-3, caspase-9 and PARP [14]: resulted in the activation of cleavages of caspase-3, caspase-9 and PARP | Growth inhibition [15]: induces growth inhibition | Growth inhibition [16]: approximately 50% | H & E staining of sections of mouse liver, small and large intestines [17]: no abnormality | Cytotoxic effect [18]: significant cytotoxic effect | Growth inhibition [19]: induces growth inhibition | Cytotoxicity on normal cells [20]: no major cytotoxicity; also recorded: no toxicity | Serum concentration (unbound) [21]: 5.0 µM | Spectral purity under stressed conditions ([10]; 0.1 N HCI, 5 mm): 96.5 ± 0.4% | Spectral purity under stressed conditions ([10]; 0.1 N NaOH, 5 mm): 96.3 ± 0.4% | Spectral purity under stressed conditions ([10]; 30% H2O2, 5 mm): 97.3 ± 0.2% | Spectral purity under stressed conditions ([10]; Normal light, 2 h): 95.2 ± 0.2% | Spectral purity under stressed conditions ([10]; Reference): 98.0 ± 0.4% | Cytotoxic effect [22]: significant cytotoxic effect | Growth inhibition [23]: induces growth inhibition
